According to US7670990B2, “Fungicidal composition comprising a pyridylethylbenzamide derivative and a compound capable of inhibiting mitosis and cell division” (Bayer Cropscience S.A., priority 2004, dated 2010):

Test system: Erysiphe graminis f. sp. tritici
Assay: Efficacy against Erysiphe graminis f. sp. tritici on wheat plants (preventive spray treatment)
Type: in vivo
Conditions: Blumeria graminis, single active, wheat sprayed at 1-leaf stage, contaminated after 24 hours, graded 7 to 14 days after contamination vs control plants
Protocol: The active ingredients tested are prepared by potter homogenisation in a mixture of acetone/tween/water. This suspension is then diluted with water to obtain the desired active material concentration.
Wheat plants (Audace variety) in starter cups, sown on 50/50 peat soil-pozzolana substrate and grown at 12° C., are treated at the 1-leaf stage (10 cm tall) by spraying with the aqueous suspension described above.
Plants, used as controls, are treated with an aqueous solution not containing the active material.
After 24 hours, the plants are contaminated by dusting them with Erysiphe graminis f. sp. tritici spores, the dusting being carried out using diseased plants.
Grading is carried out 7 to 14 days after the contamination, in comparison with the control plants.

Row | SMILES | Emax at 62.5 g/ha [%] | Emax at 125 g/ha [%]
1 | COC(=O)Nc1nc2ccccc2[nH]1 [Carbendazim, carbendazim] | 0 | 16
2 | O=C(NCCc1ncc(C(F)(F)F)cc1Cl)c1ccccc1C(F)(F)F [Compound 1, N-{2-[3-chloro-5-(trifluoromethyl)-2-pyridinyl]ethyl}-2-trifluoromethylbenzamide] | 42 | 63
